How the values were obtained:
Mas = target: T1, Mas (Homo sapiens, UniProt P04201); experiment: Competition binding assay, displacement of fluorescent Ang(1-7) from Mas-transfected CHO cells; parameters: concentration or dose not given beside the values; conditions: CHO cells transfected with Human mas1, on ice
T1 construct: expressed in transfected cells
T1 sequence (P04201 1-325): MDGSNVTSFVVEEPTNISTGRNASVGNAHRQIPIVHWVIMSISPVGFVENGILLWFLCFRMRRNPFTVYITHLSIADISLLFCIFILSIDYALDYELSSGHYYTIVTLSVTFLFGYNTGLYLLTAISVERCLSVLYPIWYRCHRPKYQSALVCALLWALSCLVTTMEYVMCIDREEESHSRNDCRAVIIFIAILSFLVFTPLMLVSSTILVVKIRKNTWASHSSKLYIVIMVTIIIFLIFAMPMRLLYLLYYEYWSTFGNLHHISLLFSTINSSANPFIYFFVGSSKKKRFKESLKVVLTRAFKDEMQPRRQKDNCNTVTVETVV
Procedure: CHO cells stably transfected with recombinant Human mas1 proto-oncogen driven by the human cytomegalovirus were grown to 80% confluency. The cells were detached with trypsin and harvested by centrifugation. Cells were washed three times in progressively colder buffers. The final number of cells per assay was 5×10^5. All subsequent steps were performed on ice. Test compound was added to the cells for 10 minutes prior to addition of fluorescently labeled A(1-7). After 10 minutes further incubation, the cells were washed to remove unbound A(1-7) and the fluorescence bound was read at an excitation of 490 nm and an emission of 520 nm.

db/db mice [1] = experiment: Bone marrow cell counts and progenitor colonies in db/db mice; assay type: in vivo; conditions: 500 mcg/kg/day subcutaneously, 14 days
Procedure: The femurs and tibia were collected from db/db mice treated 500 mcg/kg/day Ang(1-7) or Compound 7 subcutaneously for 14 days were euphanized and the bone marrow were collected by flushing with PBS containing 2% fetal calf serum. After collection of the bone marrow, the red blood cells will be lysed with a hypotonic solution (described above), mixed with 0.04% trypan blue and the number of nucleated cells was assessed by hematocytometer under light microscopy. Aliquots of cells were then resuspended at 1×10^6 cells/ml (GM and GEMM, bone marrow), 1.5×10^6 cells/ml (BFU-E, bone marrow). One hundred μ1 of each suspension was added to 900 μl of semisolid medium containing 0.9% methyl cellulose in Iscove's MDM, 15% fetal calf serum, 1% bovine serum albumin, 10 μg/ml bovine pancreatic insulin, 200 μg/ml human transferrin, 10^−4 M 2-mercaptoethanol, 2 mM glutamine, 10 ng/ml recombinant murine interleukin 3, 10 ng/ml recombinant human interleukin 6, 50 ng/ml recombinant murine stem cell factor and 3 units/ml erthropoietin. This mixture was then added to duplicate wells of a 24 well plate. The cultures were then placed at 37° C. in a humidified atmosphere of 5% CO2 in air. At day 14, the number of progenitor colonies formed was enumerated under phase contrast microscopy.
The bone marrow cells were also cultured to assess the number of MSCs by a CFU—F assay. 2.5×10^5 cells/ml, 2 ml per well, were diluted into Mesencult medium (Stem Cell Technologies, Vancouver, BC, Canada) and 2 mL were placed in each well of a 24 well plate. The cultures were then incubated at 37° C. in a humidified atmosphere of 5% CO2 in air. At days 2, 5 and 8, the number of progenitor colonies formed was enumerated under phase contrast microscopy.

C57Bl/6 mice = experiment: Acute toxicity in C57Bl/6 mice; assay type: in vivo; conditions: 500 μg/kg subcutaneous or intravenous, 7 days after treatment
Procedure: Compound 7 was evaluated for acute toxicity at 500 μg/kg in C57Bl/6 mice that was given as either a subcutaneous or intravenous injection, and its safety was evaluated for 7 days after treatment.

AT1R = target: T2, AT1R (Homo sapiens, UniProt P30556); experiment: AT1R displacement assay with radiolabeled Ang II; assay type: binding; conditions: displacement of radiolabeled Ang II or analogs; read-out: EC50 displacing Ang II at the AT1 receptor
T2 sequence (P30556 1-359): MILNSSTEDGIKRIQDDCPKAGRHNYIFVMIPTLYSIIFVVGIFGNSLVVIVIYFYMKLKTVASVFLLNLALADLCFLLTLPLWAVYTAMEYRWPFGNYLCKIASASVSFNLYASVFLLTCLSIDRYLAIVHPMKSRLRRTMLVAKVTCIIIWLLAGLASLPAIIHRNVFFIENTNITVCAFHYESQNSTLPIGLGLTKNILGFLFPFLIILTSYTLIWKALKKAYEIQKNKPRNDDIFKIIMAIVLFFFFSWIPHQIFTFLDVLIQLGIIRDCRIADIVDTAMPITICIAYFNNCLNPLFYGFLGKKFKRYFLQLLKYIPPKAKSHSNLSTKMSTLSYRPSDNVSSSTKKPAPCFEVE
Procedure: Compound 7 was evaluated in vitro for its ability to compete with ratholabeled Ang II or analogs in a displacement assay for AT1R and AT2R receptors.

[2] = Oral bioavailability in C57Bl/6 mice; assay type: in vivo; conditions: 500 μg/kg, oral gavage vs intravenous
Procedure: Compound 7 was evaluated for oral bioavailability at 500 μg/kg in C57Bl/6 mice. The drug was given by intravenous injection or by oral gavage and blood was collected at 0.5, 1, 2, 4, 8, 24 hours into heparinized tubes. The level of drug in the blood was measured by liquid chromatograph-mass spectrometry. Bioavailability was determined using the following ratio AUCIG/AUCIV (FIG. 10).

db/db mice [3] = experiment: Fasting blood glucose in db/db mice; assay type: in vivo
Procedure: Mice homozygous for the diabetes spontaneous mutation Lepr^db (BKS.Cg-Dock7^m+/+Lepr^db/J), which is an obese model of type 2 diabetes as a consequence of truncation of the leptin receptor, have verified plasma glucose levels >500 mg/dL prior to initiation of treatment. Food and water were available ad libitum, and all mice were kept on a 12-hour light/dark cycle. BKS.Cg-Dock7^m+/+Lepr^db/J mice and their heterozygous controls (n=6/group) were administered either saline (control), Ang-(1-7) (500 mcg/kg/day), or Compound 7 500 mcg/kg/day for two weeks by subcutaneous (SC) injection. Mice were fasted overnight prior to assessment of plasma glucose levels. Blood was taken from the saphenous vein and tested for glucose levels by a glucometer.

db/db mice [4] = experiment: Organ weights (organmegaly) in db/db mice; assay type: in vivo; conditions: 14 days
Source text: Compound 7 (500 mcg/kg/day) or Ang(1-7) (500 mcg/kg/day) treated db/db mice were euphanized after 14 days of treatment. At necropsy, organs were collected for histology and weights. In FIG. 6A to 6C, hearts, left and right kidney normalized to tibia length were weight where db/db treated with Compound 7 were lower than db/db-controls (saline) and db/db treated with Ang(1-7).

[5] = 500 mcg/kg/day, p<0.05 vs db/db controls

SMILES: CCCCOC(=O)NS(=O)(=O)c1ccc(OC(F)(F)F)cc1-c1ccc(Cn2ccnc2)cn1 [Compound 7, butyl (2-(5-((1H-imidazol-1-yl)methyl)pyridin-2-yl)-4-(trifluoromethoxy)phenyl)sulfonylcarbamate]
- % Displacement (Mas): 28.1%
- bone marrow counts (db/db mice [1]): increase bone marrow counts
- increase in bone marrow cell number, CFU-GEMM, CFU-GM, BFU-E and MSC (db/db mice [1]): comparable to Ang(1-7)
- bone marrow counts (db/db mice [1]; listed as compound 7): increased the bone marrow counts
- acute toxicity (C57Bl/6 mice): No overt signs of toxicity
- EC50 (AT1R): > 10 µM
- oral bioavailability (AUCIG/AUCIV) [2]: 30%
- reduction of peripheral glucose versus vehicle or Ang(1-7) treated mice (db/db mice [3]; 500 μg/kg/day, 14 days): > 40%
- reduction of FBG in terms of the excess blood glucose over non-diabetic controls (db/db mice [3]; 500 mcg/kg/day SC, two weeks): 72%
- fasting blood glucose (FBG) versus db/db mice treated with saline (db/db mice [3]; 500 mcg/kg/day SC, two weeks, p<0.05): significantly lower
- right kidney weight (db/db mice [4]; 500 μg/kg/day): trended to be similar to heterozygous control
- development of cardiomegaly (heart weight normalized to tibia length) (db/db mice [4]; [5]): prevent the development of cardiomegaly
- development of left kidney hypertrophy (weight normalized to tibia length) (db/db mice [4]; [5]): prevent

Reference: patent US10301298B2, “Methods, compounds, and compositions for the treatment of angiotensin-related diseases” (University of Southern California, priority 2013, dated 2019)
